# Data taken from patent US8669282B2, “Companion animal compositions including lipoic acid and methods of use thereof” (Hill's Pet Nutrition, Inc., priority 2000, dated 2014).
# Experiments:
# [1] = test system: genes related to cartilage and energy metabolism; test: Differential gene expression profile, whole blood RNA, canine 2 Affymetrix genechips; assay type: in vivo, dogs
# Source text: Thirty (30) dogs were used to determine the effect of lipoic acid when compared to an AAFCO control food or a test food containing fish oil.
# A differential gene expression profile was studied between an AAFCO control food, a food containing fish oil, and a food containing lipoic acid. At a minimum of 1.3 fold change, a list of 1212 genes was generated compared to the AAFCO control and 1896 genes compared to the food containing fish oil at d 30.
# Total RNAs were isolated from whole blood samples using the PAXgene RNA isolation kit. All measurements were done with the canine 2 Affymetrix genechips. For statistical analysis, all measurements were normalized with RMA. All analysis was preformed using Partek. An ANOVA t-test was performed for genes that are differentially expressed between the control and test foods were selected based on p-value cutoff 0.1, fold change>+/−1.3.
# Table 9 illustrates the change in genes related to cartilage metabolism and energy metabolism in dogs after being fed a control diet compared with dogs fed a control plus fish oil and a control plus lipoic acid for 90 days.
# canine bone cells = test: Genes related to cartilage metabolism altered in canine bone cells; assay type: in vivo, dogs; settings: 90 days
# Source text: Table 8 illustrates the directional change (up regulation or down regulation) in genes related to cartilage metabolism in dogs after being fed a control diet compared with dogs fed a control plus fish oil and a control plus lipoic acid for 90 days in canine bone cells.
# [2] = test system: cartilage markers (CPII, CTXII, COMP); test: Serum cartilage (arthritic) markers by ELISA; assay type: in vivo, dogs; settings: for Change CPII / Change CTXII / CPII: blood
# Procedure: Serum cartilage markers were measured using ELISA based kits to determine concentrations of cartilage markers. Day 0 was used as a covariate in the analysis to adjust for baseline values.
# Table 7 illustrates the change in blood level of arthritic markers in dogs after being fed a control diet compared with dogs fed a control plus fish oil and a control plus lipoic acid for 30 days and measured again at day 90.
# Table 12 illustrates arthritic makers measured in blood samples for dogs after being fed a control diet compared with dogs fed a pet food including lipoic acid for 90 days.
# GSH:GSSG = GSH:GSSG ratio in blood lymphocytes of dogs fed dl-alpha-lipoic acid in extruded food; assay type: in vivo; settings: chronic feeding in diet
# Source text: Thirty (30) adult, random source, dogs were utilized for this study. Dogs were at least 10 months of age, not pregnant, not lactating and of reasonable body weight prior to start of test. Animals were randomized into 5 groups for dietary treatment with 3 males and 3 females per each group.
# All dogs were fed a control food (0 ppm dl-alpha-lipoic acid added) that met or exceeded all recommendations for nutrients as proposed by the American Association of Feed Control Officials (AAFCO 2000) during a 2 week prefeeding period (Table 2). Following the prefeeding period dogs were randomized into 5 treatment groups with one of the following dl-alpha lipoic acid target-inclusions (dry matter basis): 0 ppm, 150 ppm, 1500 ppm, 3000 ppm, 4500 ppm. […]
# Solvents and separation conditions were as described (Fariss, Jones). Levels of GSH and GSSG were quantified relative to authentic standards. […]
# Comparison of values for clinical chemistry, hematology and body weights vs baseline were analyzed by way of paired t-test on SAS for windows with significance set at P<0.05. Means of values at each measured time point were separated by a one-way ANOVA with significance set at P<0.05. The difference in GSH:GSSG between day 84 and baseline were analyzed between groups by way of SAS for windows in a one-way ANOVA with significance set at P<0.05.
# plasma metabolites = test: Plasma metabolomics, fold change at day 30; assay type: in vivo, dogs
# Procedure: Plasma metabolites were analyzed and were compared as fold change relative to the control fed dogs.
# Table 5 illustrates the change in pyruvate blood levels in of dogs fed a control diet compared with dogs fed a control plus fish oil and a control plus lipoic acid.
# Table 22 illustrates change in metabolite measured in blood samples for dogs after being fed a control diet compared with dogs fed a pet food including lipoic acid for 30 days.
# [3] = test food containing 150 ppm lipoic acid, fold change >+/-1.3, p cutoff 0.1
# [4] = blood, day 30, day 0 as covariate
compound,measurement,setting,value
"O=C(O)CCCCC1CCSS1 (racemic) [Lipoic acid, dl-alpha-lipoic acid]",Fold change Facilitated glucose transporter 6,[1]; lipoic acid vs. control,1.3
same,Fold change chondroitan sulfate protcoglycan 2 (veriscan),[1]; lipoic acid vs. control,1.5
same,Fold change N-acetylgalactosaminyl-transferase 1,[1]; lipoic acid vs. fish oil,1.3
same,number of genes with altered expression vs AAFCO control food,[1]; [3],1212 genes
same,number of genes with altered expression vs test food containing fish oil,[1]; [3],1896 genes
same,"MMP3 gene, directional change",canine bone cells; probe 1582602_at,Down
same,"TIMP2 gene, directional change",canine bone cells; probe 1582708_at,up
same,"Prolyl 4-hydroxylase gene, directional change",canine bone cells; probe 1600479_at,up
same,Change CPII,[2]; Day 30,−95.10
same,Change CTXII,[2]; Day 30,−5.60
same,CPII,"[2]; Day 30, d 0 as covariate",986.28 ng/mL
same,Change CPII,[2]; Day 90,−232.70
same,Change CTXII,[2]; Day 90,−0.59
same,CPII,"[2]; Day 90, d 0 as covariate",848.0 ng/mL
same,"type II collagen C-propeptide and carboxy-terminal crosslinked telopeptide fragment of type II collagen, in words",[2]; compared with a similar food without lipoic acid,greater decrease
same,"reduced glutathione (GSH) to oxidized glutathione (GSSG) ratio, in words",GSH:GSSG,improves
same,"Fold change in pyruvate, Lipoic acid vs Control",plasma metabolites; [4],0.5379
same,"Fold change in pyruvate, Lipoic acid vs Fish oil",plasma metabolites; [4],0.6274
same,"metabolite hydroxyproline in plasma, in words",plasma metabolites; dogs fed a food containing lipoic acid,reduced
